Results published in ChEMBL document CHEMBL3098036, “Sulfonamide inhibition studies of the δ-carbonic anhydrase from the diatom Thalassiosira weissflogii” (Bioorg Med Chem Lett, 2014).
pKi: −log10 of the molar value.

Each compound was assayed against T1, Delta carbonic anhydrase (Conticribra weissflogii, UniProt Q5U9J1).
T1 sequence (Q5U9J1 whole entry): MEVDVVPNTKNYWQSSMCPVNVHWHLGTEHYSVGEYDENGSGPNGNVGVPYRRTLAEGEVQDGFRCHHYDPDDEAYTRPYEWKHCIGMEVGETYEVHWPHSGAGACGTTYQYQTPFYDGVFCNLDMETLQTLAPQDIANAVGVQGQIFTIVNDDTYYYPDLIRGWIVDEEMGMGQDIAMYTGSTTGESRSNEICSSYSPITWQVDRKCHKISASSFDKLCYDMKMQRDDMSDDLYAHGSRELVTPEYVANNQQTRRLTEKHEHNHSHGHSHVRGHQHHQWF

Structure (SMILES) | pKi
NS(=O)(=O)c1ccc(CCNS(=O)(=O)c2ccc([N+](=O)[O-])cc2CO)cc1 | 5.10
NS(=O)(=O)c1cccc(S(N)(=O)=O)c1 | 6.37
NS(=O)(=O)c1cc(Cl)cc(Cl)c1O | 6.12
Nc1nnc(S(N)(=O)=O)s1 | 4.97
Nc1ccc(S(=O)(=O)NCc2ccc(S(N)(=O)=O)cc2)cc1 | 6.05
Nc1ccc(S(=O)(=O)Nc2nnc(S(N)(=O)=O)s2)cc1 | 4.91
Nc1ccc(S(=O)(=O)Nc2ccc(S(N)(=O)=O)cc2)cc1 | 5.43
Nc1nccc(Nc2ccc(S(N)(=O)=O)cc2)n1 | 6.21
Nc1ccc(S(N)(=O)=O)cc1Br | 7.02
Cn1nc(S(N)(=O)=O)sc1=N | 5.26
NS(=O)(=O)c1ccc(CCO)cc1 | 5.33
Nc1cccc(S(N)(=O)=O)c1 | 6.53
NS(=O)(=O)c1ccc(CO)cc1 | 4.82
Nc1ccc(S(N)(=O)=O)cc1Cl | 6.78
Nc1ccc(S(=O)(=O)NCCc2ccc(S(N)(=O)=O)cc2)cc1 | 6.06
NS(=O)(=O)c1ccc(S(=O)(=O)Nc2cccc3c(Cl)c[nH]c23)cc1 | 6.43
NS(=O)(=O)c1nnc(NS(=O)(=O)c2ccccc2)s1 [BENZOLAMIDE] | 6.40
CCN[C@H]1CN(CCCOC)S(=O)(=O)c2sc(S(N)(=O)=O)cc21 [BRINZOLAMIDE] | 6.93
NS(=O)(=O)c1ccc(C(=O)O)cc1 [CARZENIDE] | 6.06
Cc1ccc(-c2cc(C(F)(F)F)nn2-c2ccc(S(N)(=O)=O)cc2)cc1 [CELECOXIB] | 6.58
NS(=O)(=O)c1cc(Cl)c(Cl)c(S(N)(=O)=O)c1 [DICHLORPHENAMIDE] | 6.34
NCc1ccc(S(N)(=O)=O)cc1 [MAFENIDE] | 6.37
CC(=O)/N=c1/sc(S(N)(=O)=O)nn1C [METHAZOLAMIDE] | 6.77
Cc1ccc(S(N)(=O)=O)cc1 [P-TOLUENESULFONAMIDE] | 6.37
O=C1NS(=O)(=O)c2ccccc21 [SACCHARIN] | 5.04
CC1(C)O[C@@H]2[C@@H](CO[C@@]3(COS(N)(=O)=O)OC(C)(C)O[C@@H]23)O1 [TOPIRAMATE] | 6.41
NS(=O)(=O)Cc1noc2ccccc12 [ZONISAMIDE] | 6.39
